In patent US9144239B2, “Macrocyclic picolinamides as fungicides” (DOW AGROSCIENCES LLC, priority 2012, dated 2015):
Where two headings read alike, the source gives them in different places. Blank lines part the entries; values can stand above or below the molecule they belong to.

What was measured:
[1] = system: Puccinia triticina; synonym: Puccinia recondita f. sp. tritici; assay: Fungicidal activity: wheat brown rust (PUCCRT), wheat seedlings; type: in vivo
How it was run: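 Wheat (Yuma) seedlings at first-leaf stage, inoculated with Puccinia triticina spores before or after treatment, held overnight in dark dew room at 22° C, 100% RH, then greenhouse at 24° C. Acetone solutions diluted with nine volumes water containing 110 ppm Triton X-100, sprayed to run-off. Percent disease control derived from severity (0–100%) relative to untreated plants.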

[2] = system: Mycosphaerella graminicola; anamorph: Septoria tritici; assay: Fungicidal activity: leaf blotch of wheat (SEPTTR), wheat seedlings; type: in vivo; conditions: Zymoseptoria tritici
How it was run: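 Percent control derives from disease severity on treated versus untreated first leaves, rated 0–100% when symptoms were fully expressed on untreated plants. Yuma seedlings were inoculated with S. tritici spores either before or after spraying to run-off. The spray was acetone solution diluted 1:9 in water with 110 ppm Triton X-100. Infection took place in 100% RH dew chambers, then a 20 °C greenhouse.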

[3] = 24 h, 100 ppm, 1 Day Protectant, wheat, read-out: Disease Control PUCCRT 1DP
[4] = 72 h, 100 ppm, 3 Day Curative, wheat, read-out: Disease Control PUCCRT 3DC
[5] = 24 h, 100 ppm, 1 Day Protectant, wheat, read-out: Disease Control SEPTTR 1DP
[6] = 72 h, 100 ppm, 3 Day Curative, wheat, read-out: Disease Control SEPTTR 3DC
[7] = 24 h, read-out: Disease Control PUCCRT 1DP
[8] = 72 h, read-out: Disease Control PUCCRT 3DC
[9] = 24 h, read-out: Disease Control SEPTTR 1DP
[10] = 72 h, read-out: Disease Control SEPTTR 3DC

Compound: COc1ccnc(C(=O)N[C@@H]2COC[C@H](OCC(C)C)[C@@H](OCC(C)C)COC2=O)c1O [Compound 10]
pest or weed control at 100 ppm [1, 3]: 0 to 80%
pest or weed control at 100 ppm [1, 4]: 0 to 80%
melting point: 92 to 97 °C
pest or weed control at 100 ppm [2, 5]: 0 to 80%
pest or weed control at 100 ppm [2, 6]: 0 to 80%

Compound: CC[C@@H]1OC(=O)[C@@H](NC(=O)c2nccc(OC)c2O)COC[C@H](OCC(C)C)[C@H]1OCC(C)C [Compound 21, N-((3S,7S,8S,9S)-9-ethyl-7,8-diisobutoxy-2-oxo-1,5-dioxonan-3-yl)-3-hydroxy-4-methoxypicolinamide]
pest or weed control at 100 ppm [1, 3]: 80 to 100%
pest or weed control at 100 ppm [1, 4]: 80 to 100%
melting point: 119 to 121 °C
pest or weed control at 100 ppm [2, 5]: 80 to 100%
pest or weed control at 100 ppm [2, 6]: 0 to 80%

Compound: CCCCO[C@H]1COC[C@H](NC(=O)c2nccc(OC)c2O)C(=O)O[C@@H](C)[C@@H]1OCCC [Compound 44, N-((3S,7S,8S,9S)-7-butoxy-9-methyl-2-oxo-8-propoxy-1,5-dioxonan-3-yl)-3-hydroxy-4-methoxypicolinamide]
pest or weed control at 100 ppm [1, 3]: 80 to 100%
pest or weed control at 100 ppm [1, 4]: 80 to 100%
melting point: 110 to 112 °C
pest or weed control at 100 ppm [2, 5]: 80 to 100%
pest or weed control at 100 ppm [2, 6]: 80 to 100%

Compound: CCCCO[C@H]1[C@H](C)OC(=O)[C@@H](NC(=O)c2nccc(OC)c2O)COC[C@@H]1OCc1ccccc1 [Compound 32, N-((3S,7S,8S,9S)-7-(benzyloxy)-8-butoxy-9-methyl-2-oxo-1,5-dioxonan-3-yl)-3-hydroxy-4-methoxypicolinamide]
pest or weed control at 100 ppm [1, 3]: 80 to 100%
pest or weed control at 100 ppm [1, 4]: 80 to 100%
melting point: 105 to 107 °C
pest or weed control at 100 ppm [2, 5]: 80 to 100%
pest or weed control at 100 ppm [2, 6]: 0 to 80%

Compound: CCC(C)(C)O[C@H]1COC[C@H](NC(=O)c2nccc(OC)c2O)C(=O)O[C@@H](C)[C@@H]1OCC(C)C [Compound 71, 3-hydroxy-N-((3S,7S,8S,9S)-8-isobutoxy-9-methyl-2-oxo-7-(tert-pentyloxy)-1,5-dioxonan-3-yl)-4-methoxypicolinamide]
pest or weed control at 100 ppm [1, 3]: 80 to 100%
pest or weed control at 100 ppm [1, 4]: 0 to 80%
melting point: 138 to 140 °C
pest or weed control at 100 ppm [2, 5]: 80 to 100%
pest or weed control at 100 ppm [2, 6]: 0 to 80%

Compound: C=C(C)CO[C@H]1[C@H](C)OC(=O)[C@@H](NC(=O)OCc2ccccc2)COC[C@@H]1OCC(=C)C [Compound 126, benzyl (3S,7S,8S,9S)-9-methyl-7,8-bis(2-methylallyloxy)-2-oxo-1,5-dioxonan-3-ylcarbamate]
melting point: 90 to 91 °C

Compound: COc1ccnc(C(=O)N[C@H]2COC[C@H](OCC3CC3)[C@@H](OCC3CC3)[C@H](C)OC2=O)c1OC(C)=O [Compound 232]
pest or weed control at 100 ppm [1, 3]: 80 to 100%
pest or weed control at 100 ppm [1, 4]: 80 to 100%
melting point: 54 to 60 °C
pest or weed control at 100 ppm [2, 5]: 80 to 100%
pest or weed control at 100 ppm [2, 6]: 0 to 80%

Compound: COc1ccnc(C(=O)N[C@H]2COC[C@H](OC(=O)C(C)C)[C@@H](OC(=O)C(C)C)[C@H](C)OC2=O)c1O [Compound 56, (3S,7S,8S,9S)-3-(3-hydroxy-4-methoxypicolinamido)-9-methyl-2-oxo-1,5-dioxonane-7,8-diyl bis(2-methylpropanoate)]
pest or weed control at 100 ppm [1, 7]: 80 to 100%
pest or weed control at 100 ppm [1, 8]: 80 to 100%
melting point: 111 to 113 °C
pest or weed control at 100 ppm [2, 9]: 0 to 80%
pest or weed control at 100 ppm [2, 10]: 80 to 100%

Compound: CCCCO[C@H]1COC[C@H](NC(=O)c2nccc(OC)c2O)C(=O)O[C@@H](C)[C@@H]1OC [Compound 36, N-((3S,7S,8S,9S)-7-butoxy-8-methoxy-9-methyl-2-oxo-1,5-dioxonan-3-yl)-3-hydroxy-4-methoxypicolinamide]
pest or weed control at 100 ppm [1, 3]: 80 to 100%
pest or weed control at 100 ppm [1, 4]: 80 to 100%
melting point: 118 to 120 °C
pest or weed control at 100 ppm [2, 5]: 0 to 80%
pest or weed control at 100 ppm [2, 6]: 0 to 80%

Compound: C=C(C)CO[C@H]1[C@H](C)OC[C@H](NC(=O)OCc2ccccc2)C(=O)OC[C@@H]1OCC(=C)C [Compound 127]
melting point: 79 to 81 °C

Compound: C[C@@H]1OC(=O)[C@@H](N)COC[C@H](OCC2CC2)[C@H]1OCC1CC1.Cl
melting point: 181 to 185 °C

Compound: C=C(C)CO[C@@H]1[C@@H](OCC(=C)C)COC[C@H](NC(=O)OCc2ccccc2)C(=O)O[C@H]1CC [Compound 88, benzyl ((3S,7S,8S,9S)-9-ethyl-7,8-bis((2-methylallyl)oxy)-2-oxo-1,5-dioxonan-3-yl)carbamate]
melting point: 108 to 110 °C

Compound: C=CCO[C@H]1[C@H](C)OC(=O)[C@@H](NC(=O)c2nccc(OC)c2O)COC[C@@H]1OCCCC [Compound 43, N-((3S,7S,8S,9S)-8-(allyloxy)-7-butoxy-9-methyl-2-oxo-1,5-dioxonan-3-yl)-3-hydroxy-4-methoxypicolinamide]
pest or weed control at 100 ppm [1, 3]: 80 to 100%
pest or weed control at 100 ppm [1, 4]: 80 to 100%
melting point: 101 to 103 °C
pest or weed control at 100 ppm [2, 5]: 80 to 100%
pest or weed control at 100 ppm [2, 6]: 0 to 80%

Compound: CCCCO[C@H]1[C@H](C)OC(=O)[C@@H](NC(=O)OC(C)(C)C)COC[C@@H]1OCc1ccccc1 [Compound 99]
melting point: 51 to 54 °C

Compound: C[C@@H]1OC(=O)[C@@H](NC(=O)OC(C)(C)C)COC[C@H](OCc2ccccc2)[C@H]1OCc1ccccc1 [Compound 93, tert-butyl ((3S,7S,8S,9S)-7,8-bis(benzyloxy)-9-methyl-2-oxo-1,5-dioxonan-3-yl)carbamate]
melting point: 69 to 71 °C

Compound: CCCCO[C@H]1COC[C@H](NC(=O)c2nccc(OC)c2O)C(=O)O[C@@H](C)[C@@H]1OCC(F)F [Compound 53, N-((3S,7S,8S,9S)-7-butoxy-8-(2,2-difluoroethoxy)-9-methyl-2-oxo-1,5-dioxonan-3-yl)-3-hydroxy-4-methoxypicolinamide]
pest or weed control at 100 ppm [1, 7]: 80 to 100%
pest or weed control at 100 ppm [1, 8]: 80 to 100%
melting point: 127 to 129 °C
pest or weed control at 100 ppm [2, 9]: 0 to 80%
pest or weed control at 100 ppm [2, 10]: 0 to 80%

Compound: COc1ccnc(C(=O)N[C@H]2COC[C@H](OCC(C)C)[C@@H](OCC(C)C)COC2=O)c1OCOC(C)=O [Compound 13]
pest or weed control at 100 ppm [1, 3]: 80 to 100%
pest or weed control at 100 ppm [1, 4]: 80 to 100%
melting point: 58 to 64 °C
pest or weed control at 100 ppm [2, 5]: 80 to 100%

Compound: CCCCO[C@H]1COC[C@H](NC(=O)c2nccc(OC)c2O)C(=O)O[C@@H](C)[C@@H]1OCCOC [Compound 52, N-((3S,7S,8S,9S)-7-butoxy-8-(2-methoxyethoxy)-9-methyl-2-oxo-1,5-dioxonan-3-yl)-3-hydroxy-4-methoxypicolinamide]
pest or weed control at 100 ppm [1, 8]: 80 to 100%
melting point: 75 to 77 °C
pest or weed control at 100 ppm [2, 9]: 0 to 80%
pest or weed control at 100 ppm [2, 10]: 0 to 80%

Compound: CCCCO[C@H]1COC[C@H](NC(=O)OC(C)(C)C)C(=O)O[C@@H](C)[C@@H]1OC(=O)C(C)C [Compound 113, (3S,6S,7S,8S)-8-butoxy-3-((tert-butoxycarbonyl)amino)-6-methyl-4-oxo-1,5-dioxonan-7-yl isobutyrate]
melting point: 69 to 71 °C

Compound: CC(C)CO[C@H]1[C@H](C)OC(=O)[C@@H](N)COC[C@@H]1OCC(C)C [Compound 160, (3S,7S,8S,9S)-3-amino-7,8-diisobutoxy-9-methyl-1,5-dioxonan-2-one]
melting point: 144 to 146 °C

Compound: C[C@@H]1OC(=O)[C@@H](N(C(=O)OC(C)(C)C)C(=O)OC(C)(C)C)COC[C@H](O)[C@H]1Oc1ccccc1 [Compound 249]
melting point: 110 to 112 °C

Compound: COc1ccnc(C(=O)N[C@H]2COC[C@H](OCCC(C)C)[C@@H](OCCC(C)C)[C@H](C)OC2=O)c1O [Compound 210, N-((3S,7S,8S,9S)-7,8-bis(isopentyloxy)-9-methyl-2-oxo-1,5-dioxonan-3-yl)-3-hydroxy-4-methoxypicolinamide]
melting point: 61 to 70 °C

Compound: C=C(C)CO[C@H]1COC[C@H](NC(=O)OCc2ccccc2)C(=O)OC[C@@H]1OCC(=C)C [Compound 186]
melting point: 66 to 68 °C

The next lines start with the values.

melting point: 207 to 208 °C
Compound: COc1ccc(O[C@H]2[C@H](C)OC(=O)[C@@H](N)COC[C@@H]2OC(=O)C(C)C)cc1.Cl

melting point: 217 to 219 °C
Compound: C[C@@H]1OC(=O)[C@@H](N)COC[C@H](Oc2ccccc2)[C@H]1OC1CCCC1.Cl

melting point: 197 to 198 °C
Compound: COc1ccc(O[C@H]2COC[C@H](N)C(=O)O[C@@H](C)[C@@H]2OC(=O)C(C)C)cc1.Cl

melting point: 108 °C
Compound: CC(C)CO[C@H]1[C@H](C)OC(=O)[C@@H](N(C(=O)OC(C)(C)C)C(=O)OC(C)(C)C)COC[C@@H]1Oc1ccc(F)cc1 [Compound 246]

melting point: 168 to 169 °C
Compound: CC(C)CO[C@H]1COC[C@H](N)C(=O)O[C@@H](C)[C@@H]1Oc1cccc(Cl)c1.Cl

melting point: 197 to 200 °C
Compound: CC(C)CO[C@H]1[C@H](C)OC(=O)[C@@H](N)COC[C@@H]1Oc1ccc(F)cc1.Cl

melting point: 213 to 216 °C
Compound: Cc1ccc(O[C@H]2[C@H](C)OC(=O)[C@@H](N)COC[C@@H]2Oc2ccc(C)cc2)cc1.Cl

melting point: 212 °C
Compound: Cc1cc(C)cc(O[C@H]2[C@H](C)OC(=O)[C@@H](N)COC[C@@H]2Oc2cc(C)cc(C)c2)c1.Cl

melting point: 227 to 229 °C
Compound: C[C@@H]1OC(=O)[C@@H](N)COC[C@H](Oc2ccccc2)[C@H]1Oc1ccccc1.Cl

melting point: 217 to 219 °C
Compound: CCCO[C@H]1[C@H](C)OC(=O)[C@@H](N)COC[C@@H]1Oc1ccccc1.Cl

melting point: 174 to 177 °C
Compound: CCCCO[C@H]1COC[C@H](N)C(=O)O[C@@H](C)[C@@H]1OCc1ccccc1.Cl
